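96-well plates; 48 h exposure; 5 concentrations. Endpoints by linear interpolation between flanking doses. Not reached: highest tested concentration assigned. TGI marks complete inhibition of growth.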
Columns and labels:
Experiment in all cases: DTP human tumour cell line panel, 48 h
DMS 273 small cell lung = tested on: DMS 273 small cell lung
RXF 393 renal = tested on: RXF 393 renal
UO-31 renal = tested on: UO-31 renal
SNB-75 CNS = tested on: SNB-75 CNS
NCI-H460 lung = tested on: NCI-H460 lung
HOP-92 NSCLC = tested on: HOP-92 NSCLC
TK-10 renal = tested on: TK-10 renal
A549 NSCLC = tested on: A549 NSCLC
SF-268 CNS = tested on: SF-268 CNS
ACHN renal = tested on: ACHN renal
U251 CNS = tested on: U251 CNS
NCI-H23 lung = tested on: NCI-H23 lung
HCT-116 colon = tested on: HCT-116 colon
SF-539 CNS = tested on: SF-539 CNS
SNB-78 CNS = tested on: SNB-78 CNS
SK-MEL-28 melanoma = tested on: SK-MEL-28 melanoma
DMS 114 small cell lung = tested on: DMS 114 small cell lung
OVCAR-4 ovarian = tested on: OVCAR-4 ovarian
LOX IMVI melanoma = tested on: LOX IMVI melanoma
M14 melanoma = tested on: M14 melanoma
SF-295 CNS = tested on: SF-295 CNS
EKVX NSCLC = tested on: EKVX NSCLC
HOP-62 NSCLC = tested on: HOP-62 NSCLC
HT29 colon = tested on: HT29 colon
COLO 205 colon = tested on: COLO 205 colon
CAKI-1 renal = tested on: CAKI-1 renal
OVCAR-8 ovarian = tested on: OVCAR-8 ovarian
SNB-19 CNS = tested on: SNB-19 CNS
786-0 renal = tested on: 786-0 renal
NCI-H226 lung = tested on: NCI-H226 lung
NCI-H522 lung = tested on: NCI-H522 lung
SW-620 colon = tested on: SW-620 colon
LXFL 529 NSCLC = tested on: LXFL 529 NSCLC
UACC-257 melanoma = tested on: UACC-257 melanoma
MALME-3M melanoma = tested on: MALME-3M melanoma
HCC-2998 colon = tested on: HCC-2998 colon
OVCAR-5 ovarian = tested on: OVCAR-5 ovarian
M19-MEL melanoma = tested on: M19-MEL melanoma
SK-MEL-2 melanoma = tested on: SK-MEL-2 melanoma
SN12C renal = tested on: SN12C renal
KM12 colon = tested on: KM12 colon
DLD-1 colon = tested on: DLD-1 colon
HL-60(TB) leukemia = tested on: HL-60(TB) leukemia
OVCAR-3 ovarian = tested on: OVCAR-3 ovarian
KM20L2 colon = tested on: KM20L2 colon
K-562 leukemia = tested on: K-562 leukemia
HCT-15 colon = tested on: HCT-15 colon
RPMI-8226 leukemia = tested on: RPMI-8226 leukemia
MOLT-4 leukemia = tested on: MOLT-4 leukemia
SR leukemia = tested on: SR leukemia

Measured: TGI

CC1=C(CC/C(C)=C/CCC2(C)CCC([C@H](C)C(=O)O)OO2)C(C)(C)CCC1 (stereo partly drawn) (tested in a mixture with another compound)
> 100 µM: DMS 273 small cell lung | RXF 393 renal | UO-31 renal | SNB-75 CNS | NCI-H460 lung | HOP-92 NSCLC | TK-10 renal | A549 NSCLC | SF-268 CNS | ACHN renal | U251 CNS | NCI-H23 lung | HCT-116 colon | SF-539 CNS | SNB-78 CNS | SK-MEL-28 melanoma | DMS 114 small cell lung | OVCAR-4 ovarian | LOX IMVI melanoma | M14 melanoma | SF-295 CNS | EKVX NSCLC | HOP-62 NSCLC | HT29 colon | COLO 205 colon | CAKI-1 renal | OVCAR-8 ovarian | SNB-19 CNS | 786-0 renal | NCI-H226 lung | NCI-H522 lung | SW-620 colon | LXFL 529 NSCLC | UACC-257 melanoma | MALME-3M melanoma | HCC-2998 colon | OVCAR-5 ovarian | M19-MEL melanoma | SK-MEL-2 melanoma | SN12C renal | KM12 colon | DLD-1 colon | HL-60(TB) leukemia | OVCAR-3 ovarian | KM20L2 colon

COC(=O)c1cc(Cl)ccc1NC(=O)C1CCCCC1
> 100 µM: DMS 273 small cell lung | RXF 393 renal | UO-31 renal | HOP-92 NSCLC | TK-10 renal | A549 NSCLC | SF-268 CNS | ACHN renal | U251 CNS | NCI-H23 lung | HCT-116 colon | SF-539 CNS | SNB-78 CNS | SK-MEL-28 melanoma | K-562 leukemia | DMS 114 small cell lung | SF-295 CNS | EKVX NSCLC | HCT-15 colon | HT29 colon | COLO 205 colon | OVCAR-8 ovarian | SNB-19 CNS | 786-0 renal | NCI-H226 lung | SW-620 colon | LXFL 529 NSCLC | UACC-257 melanoma | MALME-3M melanoma | HCC-2998 colon | OVCAR-5 ovarian | SK-MEL-2 melanoma | RPMI-8226 leukemia | SN12C renal | KM12 colon | MOLT-4 leukemia | SR leukemia | KM20L2 colon

Source: PubChem BioAssay (NCI)
